Where a name gives a salt, the structure may show the parent alone.
Test: RP, Waters ACQUITY UPLC HSS T3, 150 × 2.1 mm, 1.8 µm, 45 °C, 0.6 mL/min, estimated dead time 0.55 min; A: water + 0.1% formic acid, pH 3; B: acetonitrile + 0.1% formic acid, pH 3; gradient (min/%B) 0/1 0.1/1 10/55 10.15/65 10.30/75 10.45/85 10.60/95 10.70/100 11/100 11.55/100 11.65/1 11.70/1 11.80/1 11.90/1 12/1 12.10/1 12.15/1 12.65/1
Conditions: stereoisomer not certain

SMILES | LC retention time [min]
CC(=O)NC(CC(=O)O)C(=O)O (stereo unspecified) [N-Acetylaspartic acid] | 1
CC(CC(=O)O)C1CCC2C3C(O)CC4CC(O)CCC4(C)C3CC(O)C12C (stereo unspecified) [23-Norcholic acid] | 8.58
NC(Cc1ccc(O)cc1)C(=O)O (stereo unspecified) [Tyrosine] | 1.38
O=C(O)C(O)Cc1ccccc1 (stereo unspecified) [Phenyllactic acid] | 4.51
CC(=O)C1CCC2C3CC=C4CC(OS(=O)(=O)O)CCC4(C)C3CCC12C (stereo unspecified) [Pregnenolone sulfate] | 9.81
COc1cc(C(O)C(=O)O)ccc1O (stereo unspecified) [Vanillylmandelic acid] | 1.97
O=S(=O)(O)Oc1c[nH]c2ccccc12 [Indoxyl sulfate] | 3.4
O=C(O)CC(C(=O)O)C(O)C(=O)O (stereo unspecified) [Isocitric acid] | 0.77
CC(C)(O)CC(=O)O [3-Hydroxyisovaleric acid] | 2.1
CC(C)CC(=O)NCC(=O)O [N-Isovaleroylglycine] | 3.07
O=C(O)CCCCCC(=O)O [Pimelic acid] | 3.46
O=C(O)Cc1ccccc1O [2-Hydroxyphenylacetic acid] | 4.11
O=C(O)Cc1cccc(O)c1 [3-Hydroxyphenylacetic acid] | 3.74
O=C(O)C(O)Cc1ccc(O)cc1 (stereo unspecified) [4-Hydroxyphenyllactic acid] | 2.81
O=c1[nH]c(=O)c2[nH]cnc2[nH]1 [Xanthine] | 1.31
CC(=O)NCCC(=O)NC(Cc1cnc[nH]1)C(=O)O [N-Acetyl-L-carnosine] | 0.92
CC(CCC(=O)O)C1CCC2C3CCC4CC(O)CCC4(C)C3CC(O)C12C (stereo unspecified) [Deoxycholic acid] | 10.9
CC(C)CC(=O)C(=O)O [Ketoleucine] | 3.52
CC(C)C(=O)NCC(=O)O [Isobutyrylglycine] | 2.07
O=C(O)CNC(=O)Cc1ccccc1 [Phenylacetylglycine] | 4.01
CC(=O)Nc1ccc(OC2OC(C(=O)O)C(O)C(O)C2O)cc1 (stereo unspecified) [Acetaminophen glucuronide] | 1.92
CC(CCC(=O)NCC(=O)O)C1CCC2C3CCC4CC(OS(=O)(=O)O)CCC4(C)C3CCC12C (stereo unspecified) [Glycolithocholic acid-3-sulfate] | 10.2
O=c1ccn(C2OC(CO)C(O)C2O)c(=O)[nH]1 (stereo unspecified) [Uridine] | 1.38

SMILES | LC retention time [min]
O=C1O[C@H]([C@@H](O)CO)C(O)=C1OS(=O)(=O)O [L-Ascorbic acid 2-sulfate] | 0.71
CC=C(C)C(=O)NCC(=O)O [Tiglylglycine] | 2.92
O=c1[nH]cnc2c1ncn2C1OC(CO)C(O)C1O (stereo unspecified) [Inosine] | 1.61
CC(=O)NC(CCC(=O)O)C(=O)O (stereo unspecified) [N-acetylglutamic acid] | 1.35
O=C(O)CCCCC(=O)O [Adipic acid] | 2.59
COc1cc(CC(=O)O)ccc1O [Homovanillic acid] | 3.8
Cc1ccc(OS(=O)(=O)O)cc1 [p-Cresol sulfate] | 4.2
O=C(O)CCCCCCC(=O)O [Suberic acid] | 4.46
Cc1ccc(C(C)C)c(OS(=O)(=O)O)c1 [Thymol Sulfate] | 7.37
Nc1c(C(=O)NC(CC(=O)O)C(=O)O)ncn1C1OC(CO)C(O)C1O (stereo unspecified) [Succinylaminoimidazole carboxamide riboside] | 1.65
CC(C)(CO)C(O)C(=O)NCCC(=O)O (stereo unspecified) [Pantothenic acid] | 2.31
O=C(O)CCC(=O)O [Succinic acid] | 1.37
CC(CO)C(=O)O (stereo unspecified) [3-Hydroxyisobutyric acid] | 1.59
CC(C)C(O)C(=O)O (stereo unspecified) [2-Hydroxy-3-methylbutyric acid] | 2.74
Cc1ccc(OC2OC(C(=O)O)C(O)C(O)C2O)cc1 (stereo unspecified) [p-Cresol glucuronide] | 4.3
O=c1[nH]cnc2nc[nH]c12 [Hypoxanthine] | 1.2
O=C(O)c1cc(O)cc(O)c1 [3,5-Dihydroxybenzoic acid] | 2.35
CC(CCC(=O)NCC(=O)O)C1CCC2C3C(O)CC4CC(O)CCC4(C)C3CC(O)C12C (stereo unspecified) [Glycocholic acid] | 8.4
CC(CC(=O)O)CC(=O)O [3-Methylglutaric acid] | 2.66
O=C(O)C=C(CC(=O)O)C(=O)O [Cis-aconitic acid] | 1.3
CCC(C)(O)C(=O)O (stereo unspecified) [2-Hydroxy-2-methylbutyric acid] | 2.45
O=C(O)Cc1ccc(O)cc1 [4-Hydroxyphenylacetic acid] | 3.41
CC(CCC(=O)NCC(=O)O)C1CCC2C3CCC4CC(O)CCC4(C)C3CC(O)C12C (stereo unspecified) [Glycodeoxycholic acid] | 10.1

— the RepoRT retention time repository
